Where “and” joins values, the source holds several entries; their conditions need not be identical. Equal entries are not always repeated. Where two headings read alike, the source gives them in different places.
How the values were obtained:
[1] = assay type: physicochemical
Description: Stability Testing Chromatographic Conditions: VHPLC Parameters VHPLC System: Waters AcQuity BSM or […] system equipped with a Waters UV/Vis Detector Column: Ascentis Express C18, 150 mm×2.1 mm i.d., 2.7 um particle size. Detector Wavelength: 218 nm VHPLC detector time constrat: normal VHPLC sampling rate: 20 Hz […] Flow Rate: 0.5 mL/min Injection volume 1 uL Column temperature: 30° C. Run time: 14 minutes Sample temperature: 5° C. Mobile Phase A: water:acetonitrile:TFA (95:5:0.05) Mobile Phase B: water: acetonitrile:TFA (5:95:0.05) [table] […] The study consisted of one batch of drug substance packaged in double LDPE bags, placed in a 0.6 L HDPE paid with a lid and gasket.

[2] = Jet milling: milled physical properties; assay type: physicochemical
From the text: Particle size reduction can be achieved by jet milling using a 0202 Jet o Mizer loop Mill. Particle collisions are enabled by nitrogen gas supplied at high pressure to the milling chamber via two grinding nozzles. The feed rate of the drug substance into the mill is controlled by a feeder that supplies drug substance into the feed hopper of the mill at a visually consistent feed rate. High pressure nitrogen gas is supplied through the venturi nozzle to inject drug substance from the mill feed hopper into the milling chamber, and this is referred to as the venture pressure. The grinding and venturi pressures are adjusted to the desired level before the start of milling, and both are kept at the same level unless product blow back from the feed hopper is observed. The venturi pressure is typically adjusted to 10 PSI above the grinding pressure. The micronized drug substance exits via the mill chamber outlet to be collected in the product collection unit consisting of a combined cyclone and porous fabric filter media assembly. Milling parameters may be adjusted based on sample analysis. Particle sizes that range between 12.7 μm and 24.0 μm (D90 by laser-light scattering) are achieved from the milling operation.

[3] = for AUC (Mean) / Dissolution Rate (Mean): 150 mg in 250 mL (0.60 mg/mL API equivalent), 37° C.
Description: Microdissolution Microdissolution experiments were conducted in a pIon μDiss Profiler microdissolution instrument (pION μDiss Profiler) with a fiber optic UV monitoring system, as follows: Probes: 2.5 mm probes (5 mm path length) Volume: 15 ml Stirring: 150 rpm Temperature: 37° C. […] The target doses were 150 mg in 250 mL (0.60 mg/mL API equivalent) in FaSSIF (pH 6.5) and FeSSIF (pH 5).

[4] = in vivo
[5] = pH solubility of Compound 1 MSA Salt Form 1; assay type: physicochemical
Description: Measurements were taken using an Orion ATI Model 370 pH meter. […] To each vial was added 5 mL of various aqueous acidic and basic solutions. Each vial was stoppered and vortexed and sonicated to mix well. The pH of each sample was recorded. […] After 24 hours of stirring, the pH of each sample (as a suspension) was recorded. Suspensions were filtered with 0.2 micron Acrodisc syringe filters. The clear filtrates were collected and vortexed to mix well pH of each filtrated was recorded. pH of suspension and filtrate were nearly identical. A 1.0 mL aliquot of each of the filtrates 25-fold using 50% acetonitrile/50% Milli-Q water, q.w. each flask to 25 mL. […] Samples were assayed using the following HPLC method: Column: […] Mobile phase Solvent A: Water w/0.05% TFA • Solvent B: Acetonitrile w/0.05% TFA […] Column temperature: Ambient RT Detector Wavelength: 250 nm […] Working Concentration: […] Added 20 mL of 100% acetonitrile to the vial. Stoppered, vortexed, and sonicated the vial. […] Transferred the suspension to a 250 mL glass volumetric flask, and washed out the glass vial with 4×20 mL 50% acetonitrile/50% Milli-Q water, transferring each wash into the volumetric flask. All solids dissolved. Q.S. the volumetric flask to 250 mL final volume using 50% acetonitrile/50% Milli Q water, shake to give standard solution at 101.5 mcg/mL.

[6] = No. 1 Long Term, 5° C., 1 month
[7] = No. 1 Long Term, 5° C., 3 months
[8] = No. 1 Long Term, 5° C., 6 months
[9] = No. 1 Long Term, 5° C., 12 months
[10] = No. 2 Long Term, 25° C./60% RH, 1 month
[11] = No. 2 Long Term, 25° C./60% RH, 3 months
[12] = No. 2 Long Term, 25° C./60% RH, 6 months
[13] = No. 2 Long Term, 25° C./60% RH, 12 months
[14] = No. 3 Accelerated, 40° C./75% RH, 1 month
[15] = No. 3 Accelerated, 40° C./75% RH, 2 weeks
[16] = No. 3 Accelerated, 40° C./75% RH, 3 months
[17] = No. 3 Accelerated, 40° C./75% RH, 6 months
[18] = No. 5 Stress, 40° C./75% RH exposed, 1 month
[19] = No. 5 Stress, 40° C./75% RH exposed, 2 weeks
[20] = No. 5 Stress, 40° C./75% RH exposed, 3 months
[21] = No. 5 Stress, 40° C./75% RH exposed, 6 months
[22] = No. 7 Stress, 25° C./HIL/UVA Exposed, 2 weeks
[23] = No. 7 Stress, 25° C./HIL/UVA Exposed, 4 days
[24] = No. 7 Stress, 25° C./HIL/UVA protected, 2 weeks
[25] = No. 7 Stress, 25° C./HIL/UVA protected, 4 days

CS(=O)(=O)O.C[C@@H](C(=O)Nc1ccc(Cl)cc1)[C@H]1CC[C@@H](c2ccnc3ccc(F)cc32)CC1 [Compound 1 MSA Salt Form 1, (R)-N-(4-chlorophenyl)-2-((1S,4S)-4-(6-fluoroquinolin-4-yl)cyclohexyl)propanamide methanesulfonate]
photostability study conclusion [1]: does not need to be protected from light
Assay “as is” [1, 6]: 81.9%
Assay “corrected” [1, 6]: 100.5%
Assay “as is” [1, 7]: 82.4%
Assay “corrected” [1, 7]: 101.1%
Assay “as is” [1, 8]: 81.2%
Assay “corrected” [1, 8]: 99.6%
Assay “as is” [1, 9]: 81.7%
Assay “corrected” [1, 9]: 100.5%
Assay “as is” [1, 10]: 82.1%
Assay “corrected” [1, 10]: 100.8%
Assay “as is” [1, 11]: 81.7%
Assay “corrected” [1, 11]: 100.4%
Assay “as is” [1, 12]: 81.2%
Assay “corrected” [1, 12]: 99.7%
Assay “as is” [1, 13]: 81.1%
Assay “corrected” [1, 13]: 99.8%
Assay “as is” [1, 14]: 82.3%
Assay “corrected” [1, 14]: 101.0%
Assay “as is” [1, 15]: 80.7%
Assay “corrected” [1, 15]: 99.1%
Assay “as is” [1, 16]: 81.5%
Assay “corrected” [1, 16]: 100.1%
Assay “as is” [1, 17]: 81.8%
Assay “corrected” [1, 17]: 100.4%
Assay “as is” ([1]; No. 4 Stress, −20° C., 1 month): 82.4%
Assay “corrected” ([1]; No. 4 Stress, −20° C., 1 month): 101.1%
Assay “as is” [1, 18]: 81.6%
Assay “corrected” [1, 18]: 100.3%
Assay “as is” [1, 19]: 80.9%
Assay “corrected” [1, 19]: 99.3%
Assay “as is” [1, 20]: 81.4%
Assay “corrected” [1, 20]: 99.9%
Assay “as is” [1, 21]: 80.3%
Assay “corrected” [1, 21]: 98.6%
Assay “as is” ([1]; No. 6 Stress, 50° C., 1 month): 82.0%
Assay “corrected” ([1]; No. 6 Stress, 50° C., 1 month): 100.7%
Assay “as is” ([1]; No. 6 Stress, 50° C., 2 weeks): 80.8%
Assay “corrected” ([1]; No. 6 Stress, 50° C., 2 weeks): 99.2%
Assay “as is” ([1]; No. 6 Stress, 50° C., 3 months): 82.2%
Assay “corrected” ([1]; No. 6 Stress, 50° C., 3 months): 100.9%
Assay “as is” [1, 22]: 78.7%
Assay “corrected” [1, 22]: 96.8%
Assay “as is” [1, 23]: 80.8%
Assay “corrected” [1, 23]: 99.2%
Assay “as is” [1, 24]: 80.4%
Assay “corrected” [1, 24]: 98.7%
Assay “as is” [1, 25]: 81.1%
Assay “corrected” [1, 25]: 99.5%
storage time remained stable ([1]; accelerated condition of 40° C./75% RH): ≥ 6 months
changes in XRD pattern ([1]; after any of the study numbers): No changes
change in total impurities on light exposure ([1]; approximately 3.5 times the minimum ICH exposure): slight increase
Color and appearance (white or off-white powder or powder with lumps) ([1]; during the studies): maintained
4-chloroaniline (impurity) ([1]; initial): 0.09%
enantiomeric impurity of Compound 1 ([1]; initial): < 0.05%
total impurities ([1]; initial): 0.57%
water content ([1]; initial): < 0.1 % w/w
Assay “as is” ([1]; initial (average of 2 results)): 79.0% and 79.0^1%
Assay “corrected” ([1]; initial (average of 2 results)): 97.0% and 97.0^1%
storage time remained stable ([1]; long-term conditions of 5° C. and 25° C./60% relative humidity (RH)): at least 12 months
changes on light exposure ([1]; minimum ICH Q1B exposure): Essentially no changes
storage time remained stable ([1]; stress condition of 50° C.): ≥ 3 months
total impurities ([1]; study number 3): 0.48%
total impurities ([1]; study number 6): 0.50%
changes in assay “as is” or “corrected” from initial ([1]; study numbers 1, 2, 3, and 5): Essentially no changes
changes in enantiomeric impurity ([1]; study numbers 1 and 2): No changes
changes in water content ([1]; study numbers 1 and 2): Essentially no changes
4-chloroaniline (impurity) ([1]; study numbers 3 and 6 (both conditions)): < 0.05%
changes in total impurities from initial ([1]; study numbers 4, 1, 2, and 3): Essentially no changes
Bulk density ([2]; for sample with D90 of 22.3 μm): 0.193 g/mL
D50 ([2]; range from 0202 Jet Mill): 6.2-9.8 μm
Surface area ([2]; range from 0202 Jet Mill): 2.08-3.63 m^2/g
D90 ([2]; range from 0202 Jet Mill, laser-light scattering): 12.7-24.0 μm
rate and extent of dissolution compared to an amorphous form or HCl salts (amorphous and crystalline) ([3]; Example 14, FIG. 7, both FeSSiF and FaSSiF, simulated 150 mg human dose): faster rate and extent of dissolution
rate and extent of dissolution compared to Compound 1 free base (amorphous) ([3]; Example 14, FIG. 8, FaSSIF and FeSSIF at 0.2 mg/mL): faster rate and extent of dissolution
rate of dissolution ([3]; Example 16, FeSSIF): 38 µg/mL/min
AUC (Mean) ([3]; FaSSIF (pH 6.5)): 14988.073 µg·min/mL
Dissolution Rate (Mean) ([3]; FaSSIF (pH 6.5)): 2.460 µg/mL/min
AUC (Mean) ([3]; FeSSIF (pH 5)): 46410.396 µg·min/mL
Dissolution Rate (Mean) ([3]; FeSSIF (pH 5)): 38.850 µg/mL/min
Peak Solubility (Mean) ([3]; pH 5): 271.564 µg/mL
Peak Solubility (Mean) ([3]; pH 6.5): 100.877 µg/mL
oral bioavailability [4]: increased oral bioavailability
Solubility ([5]; pH 0.49): 24 µg/mL
Solubility ([5]; pH 1.01): 73 µg/mL
Solubility ([5]; pH 2.46): 147 µg/mL
Solubility ([5]; pH 2.7): 85 µg/mL
Solubility ([5]; pH 3.14): 18 µg/mL
Solubility ([5]; pH 3.61): 3 µg/mL
Solubility ([5]; pH 4.53): 1 µg/mL
Solubility ([5]; pH 6.82): 1 µg/mL
Solubility ([5]; pH 7): 96 µg/mL
Solubility ([5]; pH 9.68): 2 µg/mL
